What was measured:
[1] = target: p53-MDM2 interaction (GST-MDM2 protein aa 23-117 / biotinylated p53 wt peptide) (Homo sapiens (Human), UniProt Q00987); experiment: MDM2-p53 Inhibition AlphaScreen; assay type: biochemical; conditions: 20 nM GST-MDM2 (aa 23-117), 20 nM biotinylated p53 wt peptide
Excerpt: MDM2-p53 Inhibition AlphaScreen

[2] = system: human acute myeloid leukemia (AML) and human prostate tumor xenograft models harboring p53 wild-type; conditions: Tovar et al. 2013; cited from earlier work
[3] = system: p53 wild-type vs. p53 mutant cell lines; conditions: Carol et al. 2013; cited from earlier work
[4] = system: solid tumor xenograft models; conditions: Carol et al. 2013; cited from earlier work
[5] = system: acute lymphoblastic leukemia (ALL) xenograft models with mixed-lineage leukemia (MLL) rearrangement; conditions: Carol et al. 2013; cited from earlier work

SMILES | IC50 [1] [nM] | also measured
CS(=O)(=O)Nc1ccc(N2CC[C@H]3[C@@H](C2=O)[C@H](c2cccc(Cl)c2F)[C@]2(C(=O)Nc4cc(Cl)ccc42)N3CC2CC2)cc1 [Compound I-300] | 98 | –
CS(=O)(=O)Nc1ccc(N2C[C@H]3[C@@H](C2=O)[C@H](c2cccc(Cl)c2F)[C@]2(C(=O)Nc4cc(Cl)ccc42)N3CC2CC2)cc1F [Compound I-302] | 37 | –
CCOC(=O)CNc1ccc(N2CC[C@H]3[C@@H](C2=O)[C@H](c2cccc(Cl)c2F)[C@]2(C(=O)Nc4cc(Cl)ccc42)N3CC2CC2)cc1 [Compound I-304] | 192 | –
O=C(O)CNc1ccc(N2CC[C@H]3[C@@H](C2=O)[C@H](c2cccc(Cl)c2F)[C@]2(C(=O)Nc4cc(Cl)ccc42)N3CC2CC2)cc1 [Compound I-306] | 67 | –
CCOc1cc(C(C)(C)C)ccc1C1=N[C@@](C)(c2ccc(Cl)cc2)[C@@](C)(c2ccc(Cl)cc2)N1C(=O)N1CCN(CCCS(C)(=O)=O)CC1 [RG7112] | – | antiproliferative and proapoptotic activity [2]: antiproliferative and proapoptotic activity of RG7112 has been observed
CCOc1cc(C(C)(C)C)ccc1C1=N[C@@](C)(c2ccc(Cl)cc2)[C@@](C)(c2ccc(Cl)cc2)N1C(=O)N1CCN(CCCS(C)(=O)=O)CC1 [RG-7112] | – | cytotoxic activity, median IC50 [3]: lower median IC50 values for p53 wild-type vs. p53 mutant cell lines; tumor growth inhibition [4]: induced tumor growth inhibition; efficacy in xenograft models [5]: particularly efficacious
